Several values for one entry are separate records, joined by “and”; a condition that tells them apart may be missing. Identical values can stand only once.
What was measured:
HCT116DICER^ex5 cells [1] = assay: Cell cycle distribution by propidium iodide FACS after miR-192 duplex transfection (untreated, nocodazole or aphidicolin); assay type: cell-based, human; conditions: for % Cells with 2N (G1/S) / % Cells with 4N (G2/M): 10 nM duplex, 66 hours after transfection
Description: At 48 hours post transfection, cells were left untreated, treated with nocodazole (100 ng/mL, Sigma-Aldrich), or treated with aphidicolin (2 μg/mL, Sigma-Aldrich) for an additional 18 hours before harvesting. The cells were then trypsinized, collected, fixed and stained with a propidium iodide solution. BrdU-labeling was performed according to the manufacturer's instructions (BD-Pharmigen). For phospho-histone H3 analysis, cells were fixed and permeabilized with IPF buffer (100 mM PIPES pH 6.8, 10 mM EDTA, 1 mM MgCl2, 0.2% Triton X-100, 4% formaldehyde) and stained with propidium iodide and anti-phospho-histone H3 antibody conjugated to Alexa-488 (Cell Signaling Technology). The cells were analyzed using a FACSCalibur flow cytometer (Beacton Dickinson) and FlowJo software (Tree Star, Inc.).

HCT116DICER^ex5 cells [2] = assay: Cell cycle FACS screen of pools of three siRNAs per gene (G1 after nocodazole, G2/M after aphidicolin); assay type: cell-based, human; conditions: pools of 3 siRNAs/gene at 100 nM final, FACS 66 hours post-transfection, average of two experiments
From the text: To identify targets whose modulation influences the cell cycle arrest phenotype observed with miR-192 expression, the 62 candidate genes identified as described in Example 2 and shown in TABLE 3 were silenced individually by transfecting a pool of 3 gene-specific siRNA duplexes per gene (each directed to a different region of the gene) into HCT116DICER^ex5 cells. The siRNA duplex sequences (3 duplexes per gene) used to target each of the 62 genes are shown below in TABLE 5. The siRNA duplex oligonucleotides were obtained from Sigma-Genesys, as described in Linsley, P. S. et al., Mol Cell Biol 27:2240-2252 (2007).
HCT116DICER^ex5 cells were transiently transfected with pools of three different siRNA duplexes per gene at a 100 nM final concentration using Lipofectamine RNAiMax (Invitrogen), according to the manufacturer's instructions. At 48 hours post transfection, cells were left untreated, treated with nocodazole (100 ng/mL, Sigma-Aldrich), or treated with aphidicolin (2 μg/mL, Sigma-Aldrich) for an additional 18 hours before harvesting. The cells transfected with the siRNA pools were then screened by FACS analysis as described in Example 3 for the percentage of cells arrested in G1 or G2/M as compared to the negative siRNA luciferase control.
The siRNA pools tested in this screen were ranked according to the percentage of cells arrested in G1 or G2/M following transfection, as compared with a negative control siRNA targeting luciferase. To avoid being misled by possible RNAi off-target effects, the siRNA pools were deconvoluted to identify genes for which at least 2 different siRNA duplexes from the pool caused the cell cycle arrest phenotype (data not shown).
TABLE 6 summarizes the data obtained 66 hours post-transfection by FACS analysis showing the cell cycle distribution of the HCT116DICER^ex5 cells transfected with siRNA pools of 3 siRNAs/gene. Each pool was analyzed in two separate experiments, and the average percentage of the cells trapped in G1 (following nocodazole treatment), or G2/M (following aphidicolin treatment) are shown in TABLE 6.

[3] = compared with mock or mutant miR-192-transfected cells

Substance: miR-192: Synthetic duplex mimetic of miR-192, guide CUGACCUAUGAAUUGACAGCC (SEQ ID NO:1), passenger SEQ ID NO:7 (sense CUGUCAAUUCAUCGGUCUGAU; listed as RNA, chemistry not given here; listed as Homo sapiens)
- % Cells with 2N (G1/S) (HCT116DICER^ex5 cells [1]; aphidicolin 2 μg/mL 18 hours): 46.3%
- % Cells with 4N (G2/M) (HCT116DICER^ex5 cells [1]; aphidicolin 2 μg/mL 18 hours): 47.4%
- G2/M phase population (HCT116DICER^ex5 cells [1]; [3]): increase
- S phase population (HCT116DICER^ex5 cells [1]; [3]): significant decrease
- % Cells with 2N (G1/S) (HCT116DICER^ex5 cells [1]; nocodazole 100 ng/mL 18 hours): 36% and 36.3%
- % Cells with 4N (G2/M) (HCT116DICER^ex5 cells [1]; nocodazole 100 ng/mL 18 hours): 56.5%
- accumulation in the G2/M phase (HCT116DICER^ex5 cells [1]; treated with aphidicolin): a significant fraction
- % Cells with 2N (G1/S) (HCT116DICER^ex5 cells [1]; untreated): 48.6%
- % Cells with 4N (G2/M) (HCT116DICER^ex5 cells [1]; untreated): 44.6%
- % G2 (Avg), Aphidicholin+ (HCT116DICER^ex5 cells [2]; aphidicolin 2 μg/mL 18 h): 54.9%
- % G1 (Avg), Nocodazole+ (HCT116DICER^ex5 cells [2]; nocodazole 100 ng/mL 18 h): 43.6%

Reference: patent US20110118337A1, “Method of Using Compositions Comprising MIR-192 and/or MIR-215 for the Treatment of Cancer” (Merck Sharp & Dohme Corp., priority 2008, published 2011)
